Drawing on ChEMBL document CHEMBL1130737, “Inhibitors of acyl-CoA:cholesterol O-acyltransferase (ACAT) as hypocholesterolemic agents: synthesis and structure-activity relationships of novel series of sulfonamides, acylphosphonamides and acylphosphoramidates” (Bioorg Med Chem Lett, 1998), this text covers IC50 and DeltaTC for 36 compounds.

Experiment [1] has as its target T1, Acyl-CoA:cholesterol acyltransferase (Oryctolagus cuniculus, UniProt Q95214).
T1 sequence (Q95214 whole entry): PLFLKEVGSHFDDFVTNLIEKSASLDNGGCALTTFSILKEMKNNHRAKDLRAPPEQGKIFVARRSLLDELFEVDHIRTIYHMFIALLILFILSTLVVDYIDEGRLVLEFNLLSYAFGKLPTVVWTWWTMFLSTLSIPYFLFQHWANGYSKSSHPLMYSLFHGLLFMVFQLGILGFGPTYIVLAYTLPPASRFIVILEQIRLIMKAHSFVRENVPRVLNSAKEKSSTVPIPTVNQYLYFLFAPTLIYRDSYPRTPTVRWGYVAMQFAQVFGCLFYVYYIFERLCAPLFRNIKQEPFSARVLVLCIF
Description: In vitro inhibition of ACAT by incubation with [1-14C]oleolyl-CoA and intestinal microsomes isolated from cholesterol-fed rabbits. Details: species or system Intestine.

In experiment [2] the test system is Rattus norvegicus. Description: In vivo percent change in plasma cholesterol level was measured at a dose of 30 mg/Kg in rat and expressed as deltaTC; p < 0.01. The format is functional.
Experiment [3] deals with Rattus norvegicus. Description: In vivo percent change in plasma cholesterol level was measured at a dose of 30 mg/Kg in rat and expressed as deltaTC; not significant. The format is functional.
Experiment [4] concerns Rattus norvegicus. Description: In vivo percent change in plasma cholesterol level was measured at a dose of 10 mg/Kg in rat and expressed as deltaTC; not significant. The format is functional.
The subject of experiment [5] is Rattus norvegicus. The experiment can be described thus: In vivo percent change in plasma cholesterol level was measured at a dose of 1 mg/Kg in rat and expressed as deltaTC; not significant. Format: functional.
In experiment [6] the test system is Rattus norvegicus. The experiment can be described thus: In vivo percent change in plasma cholesterol level was measured at a dose of 30 mg/Kg in rat and expressed as deltaTC; p < 0.05. The format is functional.
Experiment [7] deals with Rattus norvegicus. Description: In vivo percent change in plasma cholesterol level was measured at a dose of 30 mg/Kg in rat and expressed as deltaTC; p < 0.001. Format: functional.
The test system of experiment [8] is Rattus norvegicus. The experiment can be described thus: In vivo percent change in plasma cholesterol level was measured at a dose of 1 mg/Kg in rat and expressed as deltaTC; p < 0.05. The format is functional.

Consider `CCCCCCCCCCCCCCSC(=O)CS(=O)(=O)Nc1c(C(C)C)cccc1C(C)C`, for which the IC50 (commonly the point on the concentration scale where inhibition reaches its midpoint) in experiment [1] was determined as 36 nM. In addition, the DeltaTC in experiment [2] is listed as -23%.
`CC(C)c1cc(C(C)C)c(NS(=O)(=O)CC(=O)Oc2c(C(C)C)cccc2C(C)C)c(C(C)C)c1` had an IC50 in experiment [1] greater than 1000 nM. Moreover, the DeltaTC in experiment [2] is -29%.
In turn, `COc1cc(OC)c(OC(=O)CS(=O)(=O)Nc2c(C(C)C)cccc2C(C)C)c(OC)c1` yielded an IC50 in experiment [1] greater than 1000 nM. In addition, in experiment [3], the DeltaTC was -6%.
Regarding `CCCCCCCCCCCCCCOC(=O)CS(=O)(=O)Nc1c(C(C)C)cccc1C(C)C`, the DeltaTC in experiment [2] was -45%.
For the compound `CCCCCCCCCCCCCCCCCCSC(=O)CS(=O)(=O)Nc1c(C(C)C)cccc1C(C)C`, the IC50 in experiment [1] was greater than 5000 nM. For the same compound, the DeltaTC in experiment [3] is on record as -35%.
In experiment [1], `COP(=O)(Cc1c(C(C)C)cccc1C(C)C)NC(=O)Cc1c(C(C)C)cc(C(C)C)cc1C(C)C` (stereo not drawn) yielded an IC50 of 1200 nM. The DeltaTC in experiment [4] is -2%.
Regarding `COP(=O)(NC(=O)Cc1c(C(C)C)cc(C(C)C)cc1C(C)C)Oc1c(C(C)C)cc(Cl)cc1C(C)C` (stereo not drawn), in experiment [1], the IC50 is greater than 5000 nM. In experiment [5], the DeltaTC was -12%.
Compound `CC(C)c1cccc(C(C)C)c1NC(=O)CS(=O)(=O)Oc1c(C(C)C)cccc1C(C)C` gave an IC50 in experiment [1] of 7 nM. Besides, the DeltaTC in experiment [2] is -42%.
For `CCCCCCNC(=O)CS(=O)(=O)Nc1c(C(C)C)cccc1C(C)C`, the IC50 in experiment [1] is greater than 5000 nM. Further, the DeltaTC in experiment [6] is -16%.
`COP(=O)(NC(=O)Cc1c(C(C)C)cc(C(C)C)cc1C(C)C)Oc1c(C(C)C)cccc1C(C)C` (stereo not drawn): in experiment [1], the IC50 is 4800 nM.
In the case of `CC(C)c1cccc(C(C)C)c1NS(=O)(=O)CC(=O)Sc1c(C(C)C)cccc1C(C)C`, in experiment [1], the IC50 was greater than 50000 nM. Besides, in experiment [3], the DeltaTC is on record as -16%.
In experiment [1], `COP(=O)(Cc1c(C(C)C)cc(C(C)C)cc1C(C)C)NC(=O)Cc1c(C(C)C)cc(C(C)C)cc1C(C)C` (stereo not drawn) registered an IC50 of 740 nM. Further, the DeltaTC in experiment [4] is on record as -17%.
On to `CCCCCCCCCCSC(=O)CS(=O)(=O)Nc1c(C(C)C)cccc1C(C)C`, for which the midpoint of inhibition in experiment [1], the IC50, lay at 130 nM.
`CC(C)c1cccc(C(C)C)c1NS(=O)(=O)CC(=O)Oc1c(C(C)C)cccc1C(C)C`: the IC50 in experiment [1] is greater than 1000 nM.
On to `CCCCCCSC(=O)CS(=O)(=O)Nc1c(C(C)C)cccc1C(C)C`, for which the IC50 in experiment [1] was 1000 nM.
Take `CC(C)c1cc(C(C)C)c(OS(=O)(=O)CC(=O)Nc2c(C(C)C)cccc2C(C)C)c(C(C)C)c1`: the IC50 in experiment [1] was found to be 7 nM. For the same compound, the DeltaTC in experiment [2] is recorded as -60%.
For the compound `CC(C)c1cccc(C(C)C)c1NC(=O)CS(=O)(=O)Nc1c(C(C)C)cccc1C(C)C`, in experiment [1], the IC50 is 350 nM. Besides, in experiment [7], the DeltaTC is listed as -51%.
In experiment [1], `CCCCCCCCSC(=O)CS(=O)(=O)Nc1c(C(C)C)cccc1C(C)C` registered a concentration for half-maximal inhibition (IC50) of 150 nM. Besides, the DeltaTC in experiment [6] is given as -32%.
In experiment [1], `CC(C)c1cccc(C(C)C)c1OC(=O)[N-]S(=O)(=O)Oc1c(C(C)C)cccc1C(C)C.[Na+]` returned an IC50 of 5200 nM. For the same compound, in experiment [2], the DeltaTC is listed as -74%.
Consider `CCOC(=O)CS(=O)(=O)Nc1c(C(C)C)cccc1C(C)C`, for which the IC50 in experiment [1] was greater than 1000 nM. Further, the DeltaTC in experiment [3] is 2%.
In the case of `CCCCCCCCCCCCOC(=O)CS(=O)(=O)Nc1c(C(C)C)cccc1C(C)C`, in experiment [2], the DeltaTC is given as -34%.
For the compound `CCCCCCOC(=O)CS(=O)(=O)Nc1c(C(C)C)cccc1C(C)C`, the half-maximal inhibitory concentration (IC50) in experiment [1] is greater than 1000 nM. For the same compound, the DeltaTC in experiment [3] is reported as -5%.
In experiment [1], `CC(C)c1cc(C(C)C)c(CC(=O)NS(=O)(=O)Oc2c(C(C)C)cccc2C(C)C)c(C(C)C)c1` [AVASIMIBE] yielded an IC50 of 12000 nM. In addition, in experiment [2], the DeltaTC is -73%.
As to `CCCCCCCCN(CCCCCCCC)C(=O)CS(=O)(=O)Nc1c(C(C)C)cccc1C(C)C`, in experiment [3], the DeltaTC is -19%.
With `CC(C)c1cccc(C(C)C)c1OS(=O)(=O)CC(=O)NC(c1ccccc1)c1ccccc1`, in experiment [1], it took 1800 nM to reach half-maximal inhibition (IC50). In addition, the DeltaTC in experiment [2] is listed as -43%.
The compound `CCCCCCCCCCCCC(C)OC(=O)CS(=O)(=O)Nc1c(C(C)C)cccc1C(C)C` (stereo not drawn) showed an IC50 in experiment [1] of 21 nM. Further, the DeltaTC in experiment [7] is recorded as -39%.
`CCCCCCCCCCOC(=O)CS(=O)(=O)Nc1c(C(C)C)cccc1C(C)C` gave an IC50 in experiment [1] greater than 1000 nM. Also, the DeltaTC in experiment [6] is on record as -16%.
`CCCCCCCCCCCCNC(=O)CS(=O)(=O)Nc1c(C(C)C)cccc1C(C)C` yielded an IC50 in experiment [1] of 320 nM. The DeltaTC in experiment [2] is on record as -29%.
`CCCCCCCCCCCCNC(=O)CS(=O)(=O)Oc1c(C(C)C)cccc1C(C)C`: the IC50 in experiment [1] amounted to 3000 nM. For the same compound, the DeltaTC in experiment [3] is given as -3%.
The like results for `CC(C)c1cc(C(C)C)c(OC(=O)CS(=O)(=O)Nc2c(C(C)C)cccc2C(C)C)c(C(C)C)c1` were, in that order, 2800 nM and -19%.
As for `CCCCCCCCCCCCSC(=O)CS(=O)(=O)Nc1c(C(C)C)cccc1C(C)C`, the IC50 in experiment [1] amounted to 73 nM. Further, the DeltaTC in experiment [2] was -71%.
The compound `CCCCCCCCOC(=O)CS(=O)(=O)Nc1c(C(C)C)cccc1C(C)C` returned an IC50 in experiment [1] greater than 1000 nM. The DeltaTC in experiment [3] is on record as -4%.
`COP(=O)(Cc1c(C(C)C)cc(C(C)C)cc1C(C)C)NC(=O)Cc1c(C(C)C)cccc1C(C)C` (stereo not drawn) came in with an IC50 in experiment [1] of 290 nM.
`CC(C)c1cccc(C(C)C)c1NS(=O)(=O)CC(=O)NCC1(c2ccccc2)CCCC1` yielded an IC50 in experiment [1] greater than 1000 nM.
As to `CC(C)c1cc(C(C)C)c(CC(=O)NP(=O)(Oc2c(C(C)C)cccc2C(C)C)c2ccccc2)c(C(C)C)c1` (stereo not drawn), in experiment [1], the IC50 was 2500 nM. The DeltaTC in experiment [8] was -25%.
Consider `CC(C)c1cccc(C(C)C)c1NS(=O)(=O)CC(=O)N(Cc1ccccc1)C(C)C`, for which the IC50 in experiment [1] stood at 150 nM. Also, the DeltaTC in experiment [2] is -31%.
